Test results taken from patent publication US20100285963A1, “SUBSTITUTED FLUOROALKOXYPHENYLSULFONYLUREAS” (priority 2001, published 2010).

Experiments:
[1] = test system: weeds; assay: Post-emergence test (greenhouse), damage to weeds; format: in vivo; details: for activity against weeds: test plants of 5-15 cm sprayed, rated after three weeks as % damage vs untreated control
Procedure: (§1) Solvent: 5 parts by weight of acetone
(§2) Emulsifier: 1 part by weight of alkylaryl polyglycol ether
To product a suitable preparation of active compound, 1 part by weight of active compound is mixed with the stated amount of solvent, the stated amount of emulsifier is added and the concentrate is diluted with water to the desired concentration.
Test plants of a height of 5-15 cm are sprayed with the preparation of active compound such that the particular amounts of active compound desired are applied per unit area. The concentration of the spray liquor is chosen such that the particular amounts of active compound desired are applied in 10001 of water/ha.
After three weeks, the degree of damage to the plants is rated in % damage in comparison to the development of the untreated control.
The figures denote: • 0%=no effect (like untreated control) • 100%=total destruction

[2] = test system: weeds; assay: Pre-emergence test (greenhouse), damage to weeds; format: in vivo; details: for activity against weeds: soil sprayed 24 hours after sowing, rated after three weeks as % damage vs untreated control
Procedure: as §1, §2
To produce a suitable preparation of active compound, 1 part by weight of active compound is mixed with the stated amount of solvent, the stated amount of emulsifier is added and the concentrate is diluted with water to the desired concentration.
Seeds of the test plants are sown in normal soil. After 24 hours, the soil is sprayed with the preparation of active compounds such that the particular amount of active compound desired is applied per unit area. The concentration of active compound in the spray liquor is chosen such that the particular amount of active compound desired is applied in 1000 liters of water per hectare.
After three weeks, the degree of damage to the plants is rated in % damage in comparison to the development of the untreated control. The figures denote: • 0%=no effect (like untreated control) • 100%=total destruction

[3] = 60 g of a.i./ha, after three weeks
[4] = 30 g of a.i./ha, after three weeks, Table B11
[5] = 250 g of a.i./ha, after three weeks
[6] = 30 g of a.i./ha, after three weeks, Table B10
[7] = 15 g of a.i./ha, after three weeks, Table A3
[8] = 60 g of a.i./ha, after three weeks, Table A6
[9] = 60 g of a.i./ha, after three weeks, Table A7
[10] = 30 g of a.i./ha, after three weeks, Table B12
[11] = 8 g of a.i./ha, after three weeks
[12] = 30 g of a.i./ha, after three weeks, Table B8
[13] = 30 g of a.i./ha, after three weeks, Table B13
[14] = 30 g of a.i./ha, after three weeks, Table B9

SMILES: CN(C)c1nc(NC(=O)NS(=O)(=O)c2c(OCCF)cccc2C(F)(F)F)nc(OCC(F)(F)F)n1 [(22)]
- % damage Alopecurus [1, 3]: 90%
- % damage Amaranthus [1, 3]: 100%
- % damage Galium [1, 3]: 95%
- % damage Ipomoea [1, 3]: 100%
- % damage Setaria [1, 3]: 95%
- % damage Sinapis [1, 3]: 95%

SMILES: COc1cc(OC)nc(NC(=O)NS(=O)(=O)c2c(C)cccc2OCCCF)n1 [Example 12]
- activity against weeds [1]: very strong activity

SMILES: COc1cc(OC)nc(NC(=O)NS(=O)(=O)c2c(C)cccc2OCCCF)n1 [(12)]
- % damage Abutilon [1, 4]: 95%
- % damage Amaranthus [1, 4]: 95%
- % damage Datura [1, 4]: 95%
- % damage Echinochloa [1, 4]: 90%

SMILES: CCCc1cccc(OCCF)c1S(=O)(=O)NC(=O)Nc1nc(OC)cc(OC)n1 [(26)]
- % damage Alopecurus [2, 5]: 100%
- % damage Amaranthus [2, 5]: 100%
- % damage Avena fatua [2, 5]: 90%
- % damage Galium [2, 5]: 95%
- % damage Setaria [2, 5]: 100%
- % damage Xanthium [2, 5]: 95%
- % damage Abutilon [1, 5]: 100%
- % damage Alopecurus [1, 5]: 95%
- % damage Amaranthus [1, 5]: 100%
- % damage Avena fatua [1, 5]: 90%
- % damage Galium [1, 5]: 90%
- % damage Setaria [1, 5]: 90%
- % damage Sinapis [1, 5]: 95%

SMILES: CCc1cccc(OCCCF)c1S(=O)(=O)NC(=O)Nc1nc(Cl)cc(OC)n1 [Example 18]
- activity against weeds [1]: very strong activity

SMILES: COc1cc(Cl)nc(NC(=O)NS(=O)(=O)c2c(OCCF)cccc2C(F)(F)F)n1 [Example 20]
- activity against weeds [2]: very strong activity
- activity against weeds [1]: very strong activity

SMILES: COc1nc(NC(=O)NS(=O)(=O)c2c(OCCF)cccc2C(F)(F)F)nc(OC)n1 [Example 21]
- activity against weeds [2]: very strong activity
- activity against weeds [1]: very strong activity

SMILES: COc1cc(OC)nc(NC(=O)NS(=O)(=O)c2c(OCCF)cccc2C(F)(F)F)n1 [Example 4]
- activity against weeds [2]: very strong activity
- activity against weeds [1]: very strong activity

SMILES: COc1nc(C)nc(NC(=O)NS(=O)(=O)c2c(C)cccc2OCCCF)n1 [(13)]
- % damage Abutilon [1, 6]: 100%
- % damage Alopecurus [1, 6]: 90%
- % damage Amaranthus [1, 6]: 100%
- % damage Ipomoea [1, 6]: 90%
- % damage Lolium [1, 6]: 90%
- % damage Matricaria [1, 6]: 100%
- % damage Stellaria [1, 6]: 100%

SMILES: COc1cc(Cl)nc(NC(=O)NS(=O)(=O)c2c(C)cccc2OCCCF)n1 [Example 14]
- activity against weeds [2]: very strong activity
- activity against weeds [1]: very strong activity

SMILES: COc1nc(C)nc(NC(=O)NS(=O)(=O)c2c(C)cccc2OCCCF)n1 [Example 13]
- activity against weeds [1]: very strong activity

SMILES: COc1nc(C)nc(NC(=O)[N-]S(=O)(=O)c2c(OCCF)cccc2C(F)(F)F)n1.[Na+] [(5)]
- % damage Amaranthus [2, 7]: 100%
- % damage Datura [2, 7]: 100%
- % damage Echinochloa [2, 7]: 100%
- % damage Galium [2, 7]: 100%
- % damage Matricaria [2, 7]: 100%
- % damage Viola [2, 7]: 100%
- % damage Abutilon [1, 6]: 100%
- % damage Alopecurus [1, 6]: 95%
- % damage Amaranthus [1, 6]: 100%
- % damage Ipomoea [1, 6]: 100%
- % damage Lolium [1, 6]: 95%
- % damage Matricaria [1, 6]: 100%
- % damage Stellaria [1, 6]: 100%

SMILES: CN(C)c1nc(NC(=O)NS(=O)(=O)c2c(OCCF)cccc2C(F)(F)F)nc(OCC(F)(F)F)n1 [Example 22]
- activity against weeds [1]: very strong activity

SMILES: COc1nc(NC(=O)NS(=O)(=O)c2c(C)cccc2OCCCF)nc(OC)n1 [(15)]
- % damage Abutilon [2, 8]: 95%
- % damage Alopecurus [2, 8]: 95%
- % damage Amaranthus [2, 8]: 100%
- % damage Echinochloa [2, 8]: 95%
- % damage Galium [2, 8]: 95%
- % damage Sinapis [2, 8]: 95%
- % damage Abutilon [1, 6]: 95%
- % damage Alopecurus [1, 6]: 90%
- % damage Amaranthus [1, 6]: 100%
- % damage Ipomoea [1, 6]: 100%
- % damage Lolium [1, 6]: 90%
- % damage Matricaria [1, 6]: 100%
- % damage Stellaria [1, 6]: 100%

SMILES: CCc1cccc(OCCCF)c1S(=O)(=O)NC(=O)Nc1nc(C)nc(OC)n1 [Example 17]
- activity against weeds [2]: very strong activity
- activity against weeds [1]: very strong activity

SMILES: COc1cc(Cl)nc(NC(=O)NS(=O)(=O)c2c(OCCF)cccc2C(F)(F)F)n1 [(20)]
- % damage Abutilon [2, 9]: 90%
- % damage Alopecurus [2, 9]: 90%
- % damage Amaranthus [2, 9]: 95%
- % damage Galium [2, 9]: 95%
- % damage Setaria [2, 9]: 100%
- % damage Sinapis [2, 9]: 95%
- % damage Echinochloa [1, 10]: 90%
- % damage Ipomoea [1, 10]: 100%
- % damage Matricaria [1, 10]: 95%
- % damage Polygonum [1, 10]: 95%
- % damage Xanthium [1, 10]: 100%

SMILES: COc1nc(C)nc(NC(=O)[N-]S(=O)(=O)c2c(OCCF)cccc2C(F)(F)F)n1.[Na+] [Example 5]
- activity against weeds [2]: very strong activity
- activity against weeds [1]: very strong activity

SMILES: COc1cc(OC)nc(NC(=O)NS(=O)(=O)c2c(C)cccc2OCCF)n1 [(24)]
- % damage Alopecurus [2, 5]: 100%
- % damage Amaranthus [2, 5]: 100%
- % damage Avena fatua [2, 5]: 95%
- % damage Galium [2, 5]: 100%
- % damage Setaria [2, 5]: 95%
- % damage Xanthium [2, 5]: 95%
- % damage Abutilon [1, 5]: 100%
- % damage Alopecurus [1, 5]: 100%
- % damage Amaranthus [1, 5]: 100%
- % damage Avena fatua [1, 5]: 90%
- % damage Galium [1, 5]: 90%
- % damage Setaria [1, 5]: 95%
- % damage Sinapis [1, 5]: 100%

SMILES: COc1nc(C)nc(NC(=O)NS(=O)(=O)c2c(C)cccc2OCCF)n1 [(1)]
- % damage Alopecurus [2, 5]: 100%
- % damage Amaranthus [2, 5]: 100%
- % damage Avena fatua [2, 5]: 100%
- % damage Galium [2, 5]: 100%
- % damage Setaria [2, 5]: 100%
- % damage Xanthium [2, 5]: 100%
- % damage Abutilon [1, 5]: 100%
- % damage Alopecurus [1, 5]: 95%
- % damage Amaranthus [1, 5]: 100%
- % damage Avena fatua [1, 5]: 95%
- % damage Galium [1, 5]: 100%
- % damage Setaria [1, 5]: 100%
- % damage Sinapis [1, 5]: 100%

SMILES: CCc1cccc(OCCCF)c1S(=O)(=O)NC(=O)Nc1nc(C)cc(C)n1 [Example 6]
- activity against weeds [2]: very strong activity
- activity against weeds [1]: very strong activity

SMILES: COc1nc(C)nc(NC(=O)NS(=O)(=O)c2c(OCCF)cccc2C(F)(F)F)n1 [Example 3]
- activity against weeds [2]: very strong activity
- activity against weeds [1]: very strong activity

SMILES: CCCc1cccc(OCCCF)c1S(=O)(=O)NC(=O)Nc1nc(OC)nc(OC)n1 [Example 8]
- activity against weeds [2]: very strong activity
- activity against weeds [1]: very strong activity

SMILES: CCCc1cccc(OCCCF)c1S(=O)(=O)NC(=O)Nc1nc(C)nc(OC)n1 [Example 7]
- activity against weeds [2]: very strong activity
- activity against weeds [1]: very strong activity

SMILES: COc1nc(C)nc(NC(=O)NS(=O)(=O)c2c(OCCF)cccc2C(F)(F)F)n1 [(3)]
- % damage Abutilon [2, 11]: 100%
- % damage Cyperus [2, 11]: 100%
- % damage Echinochloa [2, 11]: 100%
- % damage Galium [2, 11]: 100%
- % damage Solanum [2, 11]: 100%
- % damage Stellaria [2, 11]: 100%
- % damage Veronica [2, 11]: 100%
- % damage Abutilon [1, 12]: 100%
- % damage Alopecurus [1, 12]: 95%
- % damage Amaranthus [1, 12]: 100%
- % damage Lolium [1, 12]: 95%
- % damage Matricaria [1, 12]: 100%
- % damage Viola [1, 12]: 100%
- % damage Xanthium [1, 12]: 100%

SMILES: COc1nc(NC(=O)NS(=O)(=O)c2c(OCCF)cccc2C(F)(F)F)nc(OC)n1 [(21)]
- % damage Abutilon [2, 9]: 90%
- % damage Alopecurus [2, 9]: 90%
- % damage Amaranthus [2, 9]: 95%
- % damage Galium [2, 9]: 95%
- % damage Setaria [2, 9]: 100%
- % damage Sinapis [2, 9]: 100%
- % damage Avena fatua [1, 13]: 100%
- % damage Datura [1, 13]: 100%
- % damage Lolium [1, 13]: 100%
- % damage Matricaria [1, 13]: 100%
- % damage Solanum [1, 13]: 100%

SMILES: COc1nc(C)nc(NC(=O)NS(=O)(=O)c2c(C)cccc2OCCF)n1 [(2)]
- % damage Alopecurus [2, 5]: 100%
- % damage Amaranthus [2, 5]: 100%
- % damage Avena fatua [2, 5]: 95%
- % damage Galium [2, 5]: 100%
- % damage Setaria [2, 5]: 100%
- % damage Xanthium [2, 5]: 95%
- % damage Abutilon [1, 5]: 100%
- % damage Alopecurus [1, 5]: 100%
- % damage Amaranthus [1, 5]: 100%
- % damage Avena fatua [1, 5]: 100%
- % damage Galium [1, 5]: 100%
- % damage Setaria [1, 5]: 100%
- % damage Sinapis [1, 5]: 100%

SMILES: COc1nc(NC(=O)NS(=O)(=O)c2c(C)cccc2OCCCF)nc(OC)n1 [Example 15]
- activity against weeds [2]: very strong activity
- activity against weeds [1]: very strong activity

SMILES: CCc1cccc(OCCCF)c1S(=O)(=O)NC(=O)Nc1nc(C)cc(C)n1 [(6)]
- % damage Abutilon [2, 9]: 90%
- % damage Alopecurus [2, 9]: 80%
- % damage Amaranthus [2, 9]: 90%
- % damage Galium [2, 9]: 90%
- % damage Setaria [2, 9]: 95%
- % damage Sinapis [2, 9]: 90%
- % damage Abutilon [1, 14]: 90%
- % damage Alopecurus [1, 14]: 90%
- % damage Amaranthus [1, 14]: 90%
- % damage Ipomoea [1, 14]: 100%
- % damage Xanthium [1, 14]: 95%
